The source made the active and inactive calls.
Assays:
[1] = viability of uninfected HEp-2 cells – cell-based, HTS, cytotoxicity control for RSV inhibitor project, dose response (AID 2410); format: functional; settings: human respiratory syncytial virus
[2] = blockers of HIV-1 ZM109 envelope-driven cell-cell fusion – HeLa effector, CEM target cells, luciferase, cherry-pick, dose response (AID 652058); format: functional, cell-based;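 also: luciferase signal from HIV-1 Env mediated cell-cell fusion of effector and target cells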
[3] = HIV-1 AD8 envelope cell-cell fusion blockers – cherry-pick, dose response (AID 652062); format: functional, cell-based;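 also: luciferase signal from cell-cell fusion driven by HIV-1 clade B AD8 Env; potency is for inhibitors of fusion seen as a drop in luminescence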
[4] = molecular target: Luciferin 4-monooxygenase (Photinus pyralis, UniProt P08659); experiment: inhibition of purified Photinus pyralis luciferase – biochemical, luminescence, dose response (AID 1891)
Luciferin 4-monooxygenase, sequence (P08659 whole entry): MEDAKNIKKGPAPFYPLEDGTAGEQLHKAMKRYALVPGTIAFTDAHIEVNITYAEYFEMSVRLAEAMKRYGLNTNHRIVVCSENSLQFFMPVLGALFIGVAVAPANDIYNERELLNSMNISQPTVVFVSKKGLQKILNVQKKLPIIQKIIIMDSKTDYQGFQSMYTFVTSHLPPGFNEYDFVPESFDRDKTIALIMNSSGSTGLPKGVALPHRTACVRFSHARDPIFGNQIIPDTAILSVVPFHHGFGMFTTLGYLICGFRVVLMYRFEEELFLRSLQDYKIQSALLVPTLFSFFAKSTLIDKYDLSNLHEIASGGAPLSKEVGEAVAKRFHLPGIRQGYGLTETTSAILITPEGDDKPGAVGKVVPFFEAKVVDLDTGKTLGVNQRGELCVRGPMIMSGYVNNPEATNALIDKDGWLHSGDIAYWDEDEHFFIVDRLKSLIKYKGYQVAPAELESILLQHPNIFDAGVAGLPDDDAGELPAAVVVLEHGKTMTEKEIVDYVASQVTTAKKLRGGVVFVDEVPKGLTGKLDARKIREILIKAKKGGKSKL

[5] = Luminescence Cell-Based Dose Confirmation HTS to Identify Inhibitors of Platelet Dense Granule Release. [Related pubchem assays: 1663 (Primary HTS), 1678 (Summary of Project)]; format: functional
[6] = Luminescence Cell-Based Dose Response HTS to Identify Activators of Luciferase Translation or Activity in H4 […] Cells. [Related pubchem assays: 1829 (Project Summary), 1814 (Primary HTS)]; format: functional
[7] = system: H4; experiment: Luminescence Cell-Based Dose Response HTS to Identify Activators of 5'UTR Stem-Loop Driven Prion Protein mRNA Translation in H4 Neuroglioblastoma Cells. [Related pubchem assays: 1829 (Project Summary), 1814 (Primary HTS)]; format: functional; settings: Homo sapiens
[8] = molecular target: Cytochrome P450 2C19 (Homo sapiens, UniProt P33261); experiment: Cytochrome panel assay with activity outcomes. Panel member name: p450-cyp2c19 Compounds with AC50 equal or less than 10 uM are considered active; format: functional; settings: read-out: AC50
Cytochrome P450 2C19, sequence (P33261 whole entry): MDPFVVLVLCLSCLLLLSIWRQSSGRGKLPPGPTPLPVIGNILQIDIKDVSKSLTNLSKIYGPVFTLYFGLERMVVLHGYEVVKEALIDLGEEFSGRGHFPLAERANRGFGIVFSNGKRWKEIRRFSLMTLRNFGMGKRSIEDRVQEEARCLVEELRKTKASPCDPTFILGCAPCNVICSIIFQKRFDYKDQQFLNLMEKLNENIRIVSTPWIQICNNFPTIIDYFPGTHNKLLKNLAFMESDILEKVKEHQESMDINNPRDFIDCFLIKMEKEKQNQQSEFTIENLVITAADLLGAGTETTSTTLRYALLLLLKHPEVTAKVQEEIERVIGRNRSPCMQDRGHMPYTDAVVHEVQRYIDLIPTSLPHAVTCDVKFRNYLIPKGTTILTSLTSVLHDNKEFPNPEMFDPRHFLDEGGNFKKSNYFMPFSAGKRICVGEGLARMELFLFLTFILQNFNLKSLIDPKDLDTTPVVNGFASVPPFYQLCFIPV

[9] = molecular target: Cytochrome P450 3A4 (Homo sapiens, UniProt P08684);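 also: CYP3A4 tested as one member of a cytochrome P450 panel screen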
Cytochrome P450 3A4, sequence (P08684 whole entry): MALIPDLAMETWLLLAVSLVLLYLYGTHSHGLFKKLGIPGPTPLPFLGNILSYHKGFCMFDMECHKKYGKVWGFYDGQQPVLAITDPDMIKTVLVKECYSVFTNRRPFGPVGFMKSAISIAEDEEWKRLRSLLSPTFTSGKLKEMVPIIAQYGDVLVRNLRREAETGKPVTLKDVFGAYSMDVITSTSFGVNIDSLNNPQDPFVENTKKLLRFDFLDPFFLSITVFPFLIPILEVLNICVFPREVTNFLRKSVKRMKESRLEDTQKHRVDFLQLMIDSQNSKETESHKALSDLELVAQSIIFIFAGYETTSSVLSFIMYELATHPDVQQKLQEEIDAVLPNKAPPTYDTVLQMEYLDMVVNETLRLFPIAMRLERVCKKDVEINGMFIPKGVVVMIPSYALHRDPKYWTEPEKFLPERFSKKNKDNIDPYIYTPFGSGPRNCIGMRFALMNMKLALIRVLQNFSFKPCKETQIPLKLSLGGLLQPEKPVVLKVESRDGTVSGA

[10] = molecular target: T1, Ubiquitin-conjugating enzyme E2 N (Homo sapiens, UniProt P61088); format: functional;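 also: Dose-response confirmation in a TR-FRET assay detecting UBC13-driven polyubiquitin chain formation, inhibition measured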
T1 sequence (P61088 whole entry): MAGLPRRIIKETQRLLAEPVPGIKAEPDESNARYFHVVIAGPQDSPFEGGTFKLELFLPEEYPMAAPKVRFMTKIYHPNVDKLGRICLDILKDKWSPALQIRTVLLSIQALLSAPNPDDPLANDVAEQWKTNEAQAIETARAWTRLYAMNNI

[11] = system: INS1; experiment: INS-1E survival protection against cytokine death – cell-based, luminescence, retest, dose response (AID 449756); format: functional; settings: Rattus norvegicus;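 also: cell death triggered by IL-1 beta plus TNF-alpha plus IFN-gamma mixture; protective hits raise ATP signal compared with cytokine alone wells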
[12] = reduction of Shn3 3'UTR-driven luciferase in osteoblasts – cell-based, Clone20 osteoblasts, firefly luciferase, cherry-picked, dose response (AID 624132); format: functional;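 also: firefly luciferase luminescence from reporter carrying the Shn3 3'UTR in osteoblasts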
[13] = non-specific 3'UTR reporter inhibition in Clone20-Shn3RL – cell-based, Renilla luciferase, cherry-picked, counter-screen for Shn3 inhibitor project, dose response (AID 624133); format: functional
[14] = blockers of HIV-1 envelope-mediated cell-cell fusion – cherry-pick, dose response (AID 652057); format: functional, cell-based
[15] = P. falciparum Dd2 growth inhibitors, dose response, SYBR Green, cherry-picked samples (AID 1159567); format: functional, cell-based

CCc1ccc(NC2=NC(=O)/C(=C/c3cc(OC)c(OC)c(OC)c3)S2)cc1
CC50 [1]: 21.2 µM (active)

Cc1cccc(C)c1NC(=O)N1CCN(c2nc3ccccc3s2)CC1
AC50 [2]: 1.05 µM (active)
AC50 [3]: 10 µM (active)

Cc1ccc(S(=O)(=O)N=C(N)Nc2nc(C)c3ccc(C)cc3n2)cc1
CC50 [1]: > 50 µM (active)

COc1cccc(NC(=O)c2cccs2)c1
EC50 [4]: > 112 µM (not active)
EC50 [5]: > 112 µM (not active)

O=C(/C=C/c1ccco1)NCCCN1CCN(CCCNC(=O)/C=C/c2ccco2)CC1
EC50 [4]: > 112 µM (not active)
EC50 [5]: > 112 µM (not active)

O=C(C1CC(c2ccc(F)cc2)=NO1)N1CCCCC1 (stereo unspecified)
EC50 [6]: 5.56 µM (active)
EC50 [7]: 33.4 µM (active)

Cc1cc(C)n(Cc2ccc(F)cc2)c(=O)c1C#N
EC50 [4]: > 112 µM (not active)
EC50 [5]: 15.7 µM (active)

O=C(Nc1ccc(Br)cc1)c1ccc(CSC2=NCCS2)cc1
EC50 [6]: 3.81 µM (active)
EC50 [7]: 99.7 µM (active)
AC50 [8]: 11.2 µM (inconclusive)
AC50 [9]: 3.55 µM (inconclusive)

c1ccc2c(C[C@@H]3CNCCN3CCC34CC5CC(CC(C5)C3)C4)cccc2c1
IC50 [10]: > 20 µM (inactive)

Cc1sc2ncnc(N3CCN(S(=O)(=O)c4ccccc4)CC3)c2c1C
AC50 [11]: 4.3 µM (active)
AC50 [12]: 2.3 µM (active)
AC50 [13]: 3.43 µM (active)

CO[C@H]1CN(C)C(=O)c2ccc(NC(=O)C3CCC3)cc2OC[C@H](C)N(CC2CCCCC2)C[C@@H]1C
AC50 [14]: 0.592 µM (active)
AC50 [2]: 1.25 µM (active)
AC50 [3]: 1.83 µM (active)

C[C@H](CO)N1C[C@H](C)[C@H](CN(C)S(=O)(=O)c2cccs2)Oc2ccc(NC(=O)Nc3ccccc3)cc2CC1=O
AC50 [14]: 0.395 µM (active)
AC50 [2]: 0.579 µM (active)
AC50 [3]: 1.34 µM (active)

O=C(c1ccccc1F)N1C[C@H]2[C@@H](c3ccccc31)[C@@H](CO)N2C(=O)c1ccc(F)cc1
AC50 [15]: 35.2 µM (active)

CO[C@@H]1CN(C)C(=O)c2ccc(NC(=O)c3ccc(F)cc3)cc2OC[C@@H](C)N(C(=O)c2ccc(F)cc2)C[C@@H]1C
AC50 [15]: 4.29 µM (active)

CCCN(C)C[C@H]1Oc2ncc(C#Cc3ccccc3OC)cc2C(=O)N([C@H](C)CO)C[C@H]1C
AC50 [15]: 3.28 µM (active)

CCCNC(=O)N1[C@H](CO)[C@H](c2ccc(-c3ccc(C#N)cc3)cc2)[C@@H]1CNC
AC50 [15]: 11.5 µM (active)

C/C=C/c1ccc2c(c1)[C@H]1[C@H](CCN1S(=O)(=O)c1cccc(F)c1)[C@@H](CO)N2
AC50 [15]: 4.13 µM (active)
